{"source": "patent US9249180B2", "about": "“C-3 alkyl and alkenyl modified betulinic acid derivatives” (priority 2013, dated 2016)", "system": "recombinant NL4-3 virus (Renilla luciferase in nef, Gag P373S; NLRluc) in MT-2 cells", "assay": "HIV Cell Culture Assay (luciferase reporter, antiviral activity)", "type": "cell-based", "conditions": "serial dilutions of the inhibitor", "protocol": "HIV Cell Culture Assay—MT-2 cells and 293T cells were obtained from the NIH AIDS Research and Reference Reagent Program. MT-2 cells were propagated in RPMI 1640 media supplemented with 10% heat inactivated fetal bovine serum, […]. The 293T cells were propagated in DMEM media supplemented with 10% heat inactivated fetal bovine serum (FBS), 100 units/ml penicillin G and 100 μg/ml streptomycin. The proviral DNA clone of NL4-3 was obtained from the NIH AIDS Research and Reference Reagent Program. A recombinant NL4-3 virus, in which a section of the nef gene from NL4-3 was replaced with the Renilla luciferase gene, was used as a reference virus. In addition, residue Gag P373 was converted to P373S. Briefly, the recombinant virus was prepared by transfection of the altered proviral clone of NL4-3. Transfections were performed in 293T cells using LipofectAMINE PLUS from Invitrogen (Carlsbad, Calif.), according to manufacturer's instruction. The virus was titered in MT-2 cells using luciferase enzyme activity as a marker. Luciferase was quantitated using the Dual Luciferase kit from Promega (Madison, Wis.), with modifications to the manufacturer's protocol. The diluted Passive Lysis solution was pre-mixed with the re-suspended Luciferase Assay Reagent and the re-suspended Stop & Glo Substrate (2:1:1 ratio). Fifty (50) μL of the mixture was added to each aspirated well on assay plates and luciferase activity was measured immediately on a Wallac TriLux (Perkin-Elmer). Antiviral activities of inhibitors toward the recombinant virus were quantified by measuring luciferase activity in cells infected for 4-5 days with NLRluc recombinants in the presence serial dilutions of the inhibitor.", "key": {"[1]": {"conditions": "Renilla, NL43, MT-2 cells infected for 4-5 days with NLRluc recombinants"}}}
{"smiles": "C=C(C)[C@@H]1CC[C@]2(NCCN3CCC(S(C)(=O)=O)CC3)CC[C@]3(C)[C@H](CC[C@@H]4[C@@]5(C)CC=C(C=C6CCC(F)(C(=O)O)CC6)C(C)(C)[C@@H]5CC[C@]43C)[C@@H]12", "note": "(mixture of isomers) [Example B3, 1-fluoro-4-(((1R,3aS,5aR,5bR,7aR,11aS,11bR,13aR,13bR)-5a,5b,8,8,11a-pentamethyl-3a-((2-(4-(methylsulfonyl)piperidin-1-yl)ethyl)amino)-1-(prop-1-en-2-yl)-2,3,3a,4,5,5a,5b,6,7,7a,8,11,11a,11b,12,13,13a,13b-octadecahydro-1H-cyclopenta[a]chrysen-9-yl)methylene)cyclohexanecarboxylic acid]", "values": [{"measurement": "EC50", "setting": "[1]", "value": 4.49, "unit": "nM"}]}
{"smiles": "C=C(C)[C@@H]1CC[C@]2(NCCN3CCS(=O)(=O)CC3)CC[C@]3(C)[C@H](CC[C@@H]4[C@@]5(C)CC=C(CC6CCCC(C(=O)O)C6)C(C)(C)[C@@H]5CC[C@]43C)[C@@H]12", "note": "(single isomer, unassigned) [Example 2]", "values": [{"measurement": "EC50", "setting": "[1]", "value": 2, "unit": "nM"}]}
{"smiles": "C=C(C)[C@@H]1CC[C@]2(NCCN3CCS(=O)(=O)CC3)CC[C@]3(C)[C@H](CC[C@@H]4[C@@]5(C)CC=C(CC6CCCC(C(=O)O)C6)C(C)(C)[C@@H]5CC[C@]43C)[C@@H]12", "note": "(single isomer, unassigned) [Example 3]", "values": [{"measurement": "EC50", "setting": "MT-2 cells infected for 4-5 days with NLRluc recombinants", "value": 1.72, "unit": "nM"}]}
{"smiles": "C=C(C)[C@@H]1CC[C@]2(NCCN3CCS(=O)(=O)CC3)CC[C@]3(C)[C@H](CC[C@@H]4[C@@]5(C)CC=C(CC6CCC(C(=O)O)CC6)C(C)(C)[C@@H]5CC[C@]43C)[C@@H]12", "note": "(stereo partly drawn) [Example 1, 4-(((1R,3aS,5aR,5bR,7aR,11aS,11bR,13aR,13bR)-3a-((2-(1,1-dioxidothiomorpholino)ethyl)amino)-5a,5b,8,8,11a-pentamethyl-1-(prop-1-en-2-yl)-2,3,3a,4,5,5a,5b,6,7,7a,8,11,11a,11b,12,13,13a,13b-octadecahydro-1H-cyclopenta[a]chrysen-9-yl)methyl)cyclohexanecarboxylic acid]", "values": [{"measurement": "EC50", "setting": "[1]", "value": 2.96, "unit": "nM"}]}
{"smiles": "C=C(C)[C@@H]1CC[C@]2(NCCN3CCS(=O)(=O)CC3)CC[C@]3(C)[C@H](CC[C@@H]4[C@@]5(C)CC=C(CCCCC(=O)O)C(C)(C)[C@@H]5CC[C@]43C)[C@@H]12", "note": "[Example 4, 5-((1R,3aS,5aR,5bR,7aR,11aS,11bR,13aR,13bR)-3a-((2-(1,1-dioxidothiomorpholino)ethyl)amino)-5a,5b,8,8,11a-pentamethyl-1-(prop-1-en-2-yl)-2,3,3a,4,5,5a,5b,6,7,7a,8,11,11a,11b,12,13,13a,13b-octadecahydro-1H-cyclopenta[a]chrysen-9-yl)pentanoic acid]", "values": [{"measurement": "EC50", "setting": "[1]", "value": 2.27, "unit": "nM"}]}
{"smiles": "C=C(C)[C@@H]1CC[C@]2(NCCN3CCS(=O)(=O)CC3)CC[C@]3(C)[C@H](CC[C@@H]4[C@@]5(C)CC=C(CCCC(C(=O)O)C(=O)O)C(C)(C)[C@@H]5CC[C@]43C)[C@@H]12", "note": "[Example 5, 2-(3-((1R,3aS,5aR,5bR,7aR,11aS,11bR,13aR,13bR)-3a-((2-(1,1-dioxidothiomorpholino)ethyl)amino)-5a,5b,8,8,11a-pentamethyl-1-(prop-1-en-2-yl)-2,3,3a,4,5,5a,5b,6,7,7a,8,11,11a,11b,12,13,13a,13b-octadecahydro-1H-cyclopenta[a]chrysen-9-yl)propyl)malonic acid]", "values": [{"measurement": "EC50", "setting": "[1]", "value": 310, "unit": "nM"}]}
{"smiles": "C=C(C)[C@@H]1CC[C@]2(NCCN3CCS(=O)(=O)CC3)CC[C@]3(C)[C@H](CC[C@@H]4[C@@]5(C)CC=C(CCC(C)(C)CC(=O)O)C(C)(C)[C@@H]5CC[C@]43C)[C@@H]12", "note": "[Example 6, 5-((1R,3aS,5aR,5bR,7aR,11aS,11bR,13aR,13bR)-3a-((2-(1,1-dioxidothiomorpholino)ethyl)amino)-5a,5b,8,8,11a-pentamethyl-1-(prop-1-en-2-yl)-2,3,3a,4,5,5a,5b,6,7,7a,8,11,11a,11b,12,13,13a,13b-octadecahydro-1H-cyclopenta[a]chrysen-9-yl)-3,3-dimethylpentanoic acid]", "values": [{"measurement": "EC50", "setting": "[1]", "value": 1.38, "unit": "nM"}]}
{"smiles": "C=C(C)[C@@H]1CC[C@]2(NCCN3CCS(=O)(=O)CC3)CC[C@]3(C)[C@H](CC[C@@H]4[C@@]5(C)CC=C(CCCC(C)(C)C(=O)O)C(C)(C)[C@@H]5CC[C@]43C)[C@@H]12", "note": "[Example 7, 5-((1R,3aS,5aR,5bR,7aR,11aS,11bR,13aR,13bR)-3a-((2-(1,1-dioxidothiomorpholino)ethyl)amino)-5a,5b,8,8,11a-pentamethyl-1-(prop-1-en-2-yl)-2,3,3a,4,5,5a,5b,6,7,7a,8,11,11a,11b,12,13,13a,13b-octadecahydro-1H-cyclopenta[a]chrysen-9-yl)-2,2-dimethylpentanoic acid]", "values": [{"measurement": "EC50", "setting": "[1]", "value": 5.3, "unit": "nM"}]}
{"smiles": "C=C(C)[C@@H]1CC[C@]2(NCCN3CCS(=O)(=O)CC3)CC[C@]3(C)[C@H](CC[C@@H]4[C@@]5(C)CC=C(CC6CCC(OCC)(C(=O)O)CC6)C(C)(C)[C@@H]5CC[C@]43C)[C@@H]12", "note": "(stereo partly drawn) [Example 8, 4-(((1R,3aS,5aR,5bR,7aR,11aS,11bR,13aR,13bR)-3a-((2-(1,1-dioxidothiomorpholino)ethyl)amino)-5a,5b,8,8,11a-pentamethyl-1-(prop-1-en-2-yl)-2,3,3a,4,5,5a,5b,6,7,7a,8,11,11a,11b,12,13,13a,13b-octadecahydro-1H-cyclopenta[a]chrysen-9-yl)methyl)-1-ethoxycyclohexanecarboxylic acid]", "values": [{"measurement": "EC50", "setting": "[1]", "value": 4.2, "unit": "nM"}]}
{"smiles": "C=C(C)[C@@H]1CC[C@]2(NCCN3CCS(=O)(=O)CC3)CC[C@]3(C)[C@H](CC[C@@H]4[C@@]5(C)CC=C(CC6CCC(OC)(C(=O)O)CC6)C(C)(C)[C@@H]5CC[C@]43C)[C@@H]12", "note": "(stereo partly drawn) [Example 9, 4-(((1R,3aS,5aR,5bR,7aR,11aS,11bR,13aR,13bR)-3a-((2-(1,1-dioxidothiomorpholino)ethyl)amino)-5a,5b,8,8,11a-pentamethyl-1-(prop-1-en-2-yl)-2,3,3a,4,5,5a,5b,6,7,7a,8,11,11a,11b,12,13,13a,13b-octadecahydro-1H-cyclopenta[a]chrysen-9-yl)methyl)-1-methoxycyclohexanecarboxylic acid]", "values": [{"measurement": "EC50", "setting": "[1]", "value": 3.7, "unit": "nM"}]}
{"smiles": "C=C(C)[C@@H]1CC[C@]2(NCCN3CCS(=O)(=O)CC3)CC[C@]3(C)[C@H](CC[C@@H]4[C@@]5(C)CC=C(CCCCCC(=O)O)C(C)(C)[C@@H]5CC[C@]43C)[C@@H]12", "note": "[Example 10, 6-((1R,3aS,5aR,5bR,7aR,11aS,11bR,13aR,13bR)-3a-((2-(1,1-dioxidothiomorpholino)ethyl)amino)-5a,5b,8,8,11a-pentamethyl-1-(prop-1-en-2-yl)-2,3,3a,4,5,5a,5b,6,7,7a,8,11,11a,11b,12,13,13a,13b-octadecahydro-1H-cyclopenta[a]chrysen-9-yl)hexanoic acid]", "values": [{"measurement": "EC50", "setting": "[1]", "value": 3.1, "unit": "nM"}]}
{"smiles": "C=C(C)[C@@H]1CC[C@]2(NCCN3CCS(=O)(=O)CC3)CC[C@]3(C)[C@H](CC[C@@H]4[C@@]5(C)CC=C(CCCC(=O)O)C(C)(C)[C@@H]5CC[C@]43C)[C@@H]12", "note": "[Example 11, 4-((1R,3aS,5aR,5bR,7aR,11aS,11bR,13aR,13bR)-3a-((2-(1,1-dioxidothiomorpholino)ethyl)amino)-5a,5b,8,8,11a-pentamethyl-1-(prop-1-en-2-yl)-2,3,3a,4,5,5a,5b,6,7,7a,8,11,11a,11b,12,13,13a,13b-octadecahydro-1H-cyclopenta[a]chrysen-9-yl)butanoic acid]", "values": [{"measurement": "EC50", "setting": "[1]", "value": 10, "unit": "nM"}]}
{"smiles": "C=C(C)[C@@H]1CC[C@]2(NCCN3CCS(=O)(=O)CC3)CC[C@]3(C)[C@H](CC[C@@H]4[C@@]5(C)CC=C(CCC(C)(C)CC(=O)NO)C(C)(C)[C@@H]5CC[C@]43C)[C@@H]12", "note": "[Example 12, 5-((1R,3aS,5aR,5bR,7aR,11aS,11bR,13aR,13bR)-3a-((2-(1,1-dioxidothiomorpholino)ethyl)amino)-5a,5b,8,8,11a-pentamethyl-1-(prop-1-en-2-yl)-2,3,3a,4,5,5a,5b,6,7,7a,8,11,11a,11b,12,13,13a,13b-octadecahydro-1H-cyclopenta[a]chrysen-9-yl)-N-hydroxy-3,3-dimethylpentanamide]", "values": [{"measurement": "EC50", "setting": "[1]", "value": 2, "unit": "nM"}]}
{"smiles": "C=C(C)[C@@H]1CC[C@]2(NCCN3CCS(=O)(=O)CC3)CC[C@]3(C)[C@H](CC[C@@H]4[C@@]5(C)CC=C(CCC(C)(C)CC(=O)NOC)C(C)(C)[C@@H]5CC[C@]43C)[C@@H]12", "note": "[Example 13, 5-((1R,3aS,5aR,5bR,7aR,11aS,11bR,13aR,13bR)-3a-((2-(1,1-dioxidothiomorpholino)ethyl)amino)-5a,5b,8,8,11a-pentamethyl-1-(prop-1-en-2-yl)-2,3,3a,4,5,5a,5b,6,7,7a,8,11,11a,11b,12,13,13a,13b-octadecahydro-1H-cyclopenta[a]chrysen-9-yl)-N-methoxy-3,3-dimethylpentanamide]", "values": [{"measurement": "EC50", "setting": "[1]", "value": 30, "unit": "nM"}]}
